# Source: patent US20250090573A1, “COMPOSITIONS FOR DELIVERING NITRIC OXIDE AND FLUORIDE AND METHODS FOR MAKING AND USING THE SAME” (University of Georgia Research Foundation, Inc., priority 2022, published 2025)
# Key:
# [1] = system: HGF; format: cell-based; conditions: human, 24 h
# Description: (§1) The cell lines HGF and hFOB 1.19 were cultured for cytocompatibility assessments. HGF cells were cultured in fibroblast basal medium supplemented with the manufacturer's recommended growth kit (2% fetal bovine serum, 50 μg/mL ascorbic acid, 5 μg/mL rh insulin, […] hydrocortisone hemisuccinate, 5 ng/mL rh FGF b, and 7.5 mM L-glutamine) and penicillin-streptomycin (10 units/mL and 10 μg/mL, respectively). hFOB 1.19 cells were maintained in a 1:1 mixture of Ham's F12 Medium and Dulbecco's Modified Eagle's Medium supplemented with L-glutamine (2.5 mM), fetal bovine serum (10%) and G418 (0.3 mg/mL). Both cell types were incubated at 37° C. in a 5% CO2 humified atmosphere. Medium was replaced every 48 h and both cell lines were subcultured once monolayers were 80% confluent. Cells were detached from the flask surface via enzymatic treatment with 0.05% trypsin and 5 mM EDTA for 5 min, with isolation of cell pellets via centrifugation at 200 RCF for 5 min.
# (§2) The cellular cytotoxicity of GSNO against HGF and hFOB 1.19 cells was tested over 24 h direct contact experiments. […] A separate set of wells containing only media and the dye (n=5) were also prepared to account for background readings. The absorbance of each well was measured at 450 nm, adjusted against the average absorbance reading of the wells with only media. […]
# [2] = GSNO/NO loading by chemiluminescence NO analyzer (Cu1+ depletion); format: physicochemical; conditions: hydrogel precursor sol, aqueous with cosolvent or surfactant or cyclodextrin; read-out: GSNO sol concentration after which solubility is incomplete
# [3] = system: hFOB 1.19; experiment: Cellular cytotoxicity of GSNO and precursor sol materials (CCK-8); format: cell-based, human; conditions: hFOB 1.19 cells, direct contact exposure
# Description: as §1, §2
smiles,measurement,setting,value
"N[C@@H](CCC(=O)N[C@@H](CSN=O)C(=O)NCC(=O)O)C(=O)O [GSNO, S-Nitrosoglutathione]",GSNO treatment eliciting cytotoxic response,[1],greater than 100 μg/mL
same,solubility,[2],≤ 30 mg/mL
same,GSNO treatment eliciting cytotoxic response,[3],~400 µg/mL
